Assays:
Assay type in all cases: in vivo
Heliothis virescens [1] = test: Tobacco Budworm (Heliothis virescens) feeding assay, cotton leaf-dip; conditions: second instar larvae
Description: To compare insecticidal activities of compounds of the invention against second instar larval Heliothis virescens leaf-dip bioassay was used. Cotton cotyledon leaves were dipped in a test solution made up of the compound dissolved in acetone: Millipore water (2:1) at rates of 400 ppm to 1.56 ppm. Each cotyledon was placed individually on top of a moistened (distilled water) cotton ball in the bottom of a 1 oz plastic cup and allowed to dry (one hour). After drying, a single laboratory-reared second instar Heliothis virescens larva (mean weight 15 mg.) was placed on the treated leaf and the cup sealed with a lid, and held at 27° C. for four days. Percent mortality was determined at the end of the holding period.

Heliothis virescens [2] = test: Tobacco Budworm (Heliothis virescens) topical assay
Experimental: An additional measure of the relative insecticidal activities of the compounds of the invention was generated by using a 1 ug/ul acetone solution of each compound applied at 1 ug/larva of laboratory-reared Heliothis virescens larvae (mean weight of 22 mg). Each compound was applied along the dorsum of each of six larvae. Treated larvae were then held for two days at 21° C., 60% RH in six-well plastic culture plates. Larvae were each supplied with a 1 cm^3 of agar-based lepidoptera diet for sustenance during the two-day post-exposure interval. Percent mortality was determined at the end of a two-day period.

Aphis gossypii = test: Cotton Aphid (Aphis gossypii) assay, spray on squash seedlings; conditions: rate 50 ppm, relative to plants sprayed with solvent only; for mortality at 50 ppm: Aphis gossypii, 72 h
Experimental: Insecticidal activities of the compounds of the invention were also evaluated against cotton aphids (Aphis gossyppi) as follows. Summer crookneck squash seedlings at the expanded cotyledon stage are primed to a single cotyledon and infested with cotton aphids 16-24 hours before application of the test material by transfer of infested foliage cut from a stock colony. Immediately prior to spray application of the test material, the transfer foliage is removed from the squash plants. The test material is dissolved at 1 mg/ml in 90:10 acetone:alcohol, then diluted in water containing 0.05% Tween 20 (polyethylene (20) sorbitan monolaurate) to give test solution at a concentration of 50 ppm. The plants were sprayed with the test solution using an atomizing sprayer at 17 psi. Both surfaces of the cotyledons are covered until runnoff, and then allowed to dry. Activity of the compound was determined at three days after treatment. Activity was rated as a percent based on the number of aphids present in plants sprayed with solvent only.

Heliothis virescens [3] = test: Tobacco Budworm (Heliothis virescens) feeding assay, cotton leaf-dip; conditions: rate 600 ppm, second instar larvae, 96 h

**Q.** Which mortality at 1.56 ppm (Heliothis virescens [1]; Heliothis virescens, rate 1.56 ppm, 96 h) does the source give for `CC/C=C/[C@H]1CCC[C@H](OC2CC[C@H](N(C)C)[C@@H](C)O2)[C@@H](C)C(=O)C2=CC3C(C=CC4C[C@@H](O[C@@H]5O[C@@H](C)[C@H](OC)[C@@H](OCC)[C@H]5OC)CC43)C2CC(=O)O1` (stereo partly shown) [Compound A2, for-(3′-O-ethylrham)-I] here?
**A.** The mortality at 1.56 ppm was 100%.

**Q.** What about the “Tobacco Budworm Typical (48 h) Mortality (%)” value (shortened to “Tobacco Budworm Typical … (%)”) (Heliothis virescens [2]; in vivo) of the same compound?
**A.** Its value is 100%.

**Q.** What about the mortality at 50 ppm (Aphis gossypii) of the same compound?
**A.** Its mortality at 50 ppm is 97%.

**Q.** Which “Tobacco Budworm Feeding (96 h) Mortality (%)” value (Heliothis virescens [1]; rate 6.25 ppm) does the source give for `CCCCOC1C(OC)C(C)OC(OC2CC3CCC4C5CC(=O)OC(CCCC)CCCC(OC6CCC(N(C)C)C(C)O6)C(C)C(=O)C5=CC4C3C2)C1OC` (stereo not shown) [Compound A17] here?
**A.** Its value is 10%.

**Q.** And the “Tobacco Budworm Typical … (%)” value (Heliothis virescens [2]; rate 1 µg/larva, 48 h)?
**A.** Its value is 100%.

**Q.** And the “Cotton Aphid mortality (72 h) Mortality (%)” value (Aphis gossypii)?
**A.** The value was 100%.

**Q.** How did the mortality at 6.25 ppm (Heliothis virescens [1]; Heliothis virescens, rate 6.25 ppm, 96 h) turn out when `CCCC[C@H]1CCC[C@H](OC2CC[C@H](N(C)C)[C@@H](C)O2)[C@@H](C)C(=O)C2=CC3C4C[C@H](O[C@@H]5O[C@@H](C)[C@H](OC)[C@@H](OC)[C@H]5OC)CC4CCC3C2CC(=O)O1` (stereo partly shown) [Compound B3, 5,6,22,23-tetrahydro-for-rham-I] was run?
**A.** The mortality at 6.25 ppm was 100%.

**Q.** What about the “Tobacco Budworm Typical … (%)” value (Heliothis virescens [2]; in vivo) of the same compound?
**A.** The value was 100%.

**Q.** What about the mortality at 50 ppm (Aphis gossypii) of the same compound?
**A.** The mortality at 50 ppm was 53%.

**Q.** How did the mortality at 600 ppm (Heliothis virescens [3]) turn out when `CCCC[C@H]1CCC[C@H](OC2CC[C@H](N(C)C)[C@@H](C)O2)[C@@H](C)C(=O)C2=CC3C4C[C@H](O[C@@H]5O[C@@H](C)[C@H](OC)[C@@H](O)[C@H]5OC)CC4CCC3C2CC(=O)O1` (stereo partly shown) [Compound B12, 5,6,22,23-tetrahydro-for-(3′-O-desmethylrham)-I] was run?
**A.** The mortality at 600 ppm was 100%.

Source: patent publication US6919464B1, “Synthetic derivatives of 21-butenyl and related spinosyns” (Dow AgroSciences LLC, priority 2001, dated 2005)
